Key:
MYCN = assay: Immunoblotting of MYCN in neuroblastoma cells; assay type: cell-based, human; conditions: 24 h
Experimental: Following treatment, cells were lysed on ice using radioimmunoprecipitation (RIPA) buffer with phosphatase inhibitors (P5726, Sigma Aldrich), protease inhibitors (P8340, Sigma Aldrich), and phenylmethanesulfonylfluoride (PMSF, P7626, Sigma Aldrich) for 60 min. Cell lysates were centrifuged at 17,000 rpm for 30 min at 4 °C. Pierce™ BCA Protein Assay (Thermo Fisher Scientific, Inc.) determined protein concentration and proteins were separated by electrophoresis on sodium dodecyl sulfate polyacrylamide (SDS-PAGE) gels. Expected size of the targeted proteins was confirmed using molecular weight markers (Precision Plus Protein Kaleidoscope, Bio-Rad, Hercules, CA, USA). […] Immunoblots were developed with Luminata Classico or Crescendo Western horseradish peroxidase substrate (EMD Millipore, Burlington, MA, USA). Either anti-vinculin or anti-β-actin (as available from manufacturer) served as an internal loading control. We performed densitometry of Western blots using ImageJ software (Ver 1.49, http://imagej.nih.gov/ij (accessed on 9 February 2022).

[1] = Plasma levels after oral dose in mice; assay type: in vivo, mouse; conditions: male ICR mice, bolus oral dose 50 mg/kg in 1:1:8 DMA:Solutol:water; compared to DBK-1154
Experimental: Blood aliquots were collected via cardiac puncture (300 µL) sampling from anesthetized mice in tubes coated with lithium heparin, mixed gently, then kept on ice and centrifuged at 2500× g for 15 min at 4 °C, within 1 h of collection. The plasma was harvested and kept frozen at −70 °C until further processing.
The plasma samples were processed using protein precipitation and analyzed by LC-MS/MS. A plasma calibration curve was generated. Aliquots of drug-free plasma were spiked with the test articles at the specified concentration levels. The spiked plasma samples were processed together with the unknown plasma samples using the same procedure. The processed plasma samples were placed in the autosampler until the LC-MS/MS analysis, at which time peak areas were recorded, and the concentrations of the test articles in the unknown plasma samples were determined using the respective calibration curve. The reportable linear range of the assay was determined, along with the lower limit of quantitation (LLOQ).
Plots of plasma concentration of test articles, ATUX-792 and DBK-1154, vs. time are constructed and shown in Supplementary Figure S2.
levels compared to DBK -1154. Serum concentration after bolus oral dose of 50 mg/kg in
1:1:8 DMA:Solutol:water (3 animals per time point). Blood aliquots were collected via car- […]
quantitative bioanalysis. […]

[2] = SK-N-AS cells, increasing doses
[3] = SK-N-BE(2), SH-EP and WAC2 cells, 0, 10, 20 μM

| SMILES | MYCN protein expression (MYCN; [2]) | MYCN protein expression (MYCN; [3]) | oral bioavailability / plasma levels [1] |
| --- | --- | --- | --- |
| O=S(=O)(NC1CCCC(N2c3ccccc3CCc3ccccc32)C1O)c1ccc(OC(F)(F)F)cc1 (centres unmarked) [DBK-1154] | increase in MYCN expression | decreased expression of MYCN | – |
| O=S(=O)(N[C@H]1COC[C@@H](n2c3ccc(Cl)cc3c3cc(Cl)ccc32)[C@@H]1O)c1ccc(OC(F)(F)F)cc1 [ATUX-792] | increase in MYCN expression | decreased expression of MYCN | good oral bioavailability |

From paper PMC9026148, “Pre-Clinical Study Evaluating Novel Protein Phosphatase 2A Activators as Therapeutics for Neuroblastoma” (Cancers, 2022)
